Laboratory results reported in article PMC11372076, “A dual inhibitor of PIP5K1C and PIKfyve prevents SARS-CoV-2 entry into cells” (Experimental & Molecular Medicine, 2024).

Tests used:
[1] = test system: GFP-PIKfyve; test: Cellular thermal shift assay (CETSA); type: cell-based; details: versus DMSO control, Western blot
Description: (§1) The chemically treated cells were heated to 56 °C for 3 min to denature and precipitate nontargeted proteins. The heated cells were immediately snap-frozen in liquid nitrogen overnight. After the cells were frozen and thawed twice, the tubes were briefly vortexed. The resulting cell lysates were subjected to SDS‒PAGE.
(§2) Fig. 1 UNI418 specifically targets PIP5K1 and PIKfyve. a Chemical structure of UNI418. The 4-quinazolinamine core is highlighted in green. b Table of the kinase profiling analysis. Inhibition of several kinases was determined at a 1 μM concentration of UNI418 and analyzed by the SelectScreen Kinase Profiling Service (Thermo Fisher Scientific). c Cellular thermal shift assay. Ectopically expressed GFP-PIP5K1C and GFP-PIKfyve were heated to the indicated temperatures with/without UNI418, and the presence of protein in the soluble fraction was analyzed by Western blot analysis. […]

[2] = test system: GFP-PIP5K1C; test: Cellular thermal shift assay (CETSA); type: cell-based; details: versus DMSO control, Western blot
Description: as §1, §2

c1ccc(-c2cc(Nc3nc(-c4ccncc4)nc4ccccc34)n[nH]2)cc1 [UNI418, N -(5-phenyl-1 H -pyrazol-3-yl)-2-(4-pyridinyl)-4-quinazolinamine]
thermal stabilization of target protein in soluble fraction [1]: more stable at higher temperatures | thermal stabilization of target protein in soluble fraction [2]: more stable at higher temperatures
